Reference: ChEMBL document CHEMBL4513141, “CO-ADD screening of NIH (USA) - Clinical Collection” (2021)
≈ marks a conversion by molar mass, not a printed value. Structures can show the parent of a compound that is named as a salt.

Assays:
[1] = tested on: Escherichia coli; experiment: microbe, parasite or virus in culture; details: ATCC 25922, 18 h, ASSAY_TEST Inhibition of Bacterial Growth, detection method Absorption (OD600), MEDIA CAMHB, plate type 384well, NBS, CORNING #3640
Description: Antibacterial activity against Escherichia coli ATCC 25922 (CO-ADD:GN_001); MIC in CAMBH media using NBS plates, by OD(600)

[2] = tested on: Candida albicans; experiment: microbe, parasite or virus in culture; details: ATCC 90028, ASSAY_TEST Inhibition of Fungal Growth, detection method Absorption (OD530), plate type 384well, NBS, CORNING #3640
Description: Antifungal activity against Candida albicans ATCC 90028 (CO-ADD:FG_001); MIC in YNB media using NBS plates, by OD630

[3] = tested on: HEK293; experiment: cells; type: functional, Homo sapiens, ATCC CRL1573; details: ASSAY_TEST Inhibition of Cell Viability, detection method Resazurin, Fluorescence (ex560/em590), MEDIA DMEM with 10% FBS, plate type 384well, TC, CORNING #3712, time 18 hr
[4] = tested on: Staphylococcus aureus; experiment: microbe, parasite or virus in culture; details: ATCC 43300, 18 h, ASSAY_TEST Inhibition of Bacterial Growth, detection method Absorption (OD600), MEDIA CAMHB, plate type 384well, NBS, CORNING #3640
Description: Antibacterial activity against Staphylococcus aureus MRSA ATCC 43300 (CO-ADD:GP_020); MIC in CAMBH media, using NBS plates, by OD(600)

[5] = tested on: Pseudomonas aeruginosa; experiment: microbe, parasite or virus in culture; details: ATCC 27853, 18 h, ASSAY_TEST Inhibition of Bacterial Growth, detection method Absorption (OD600), MEDIA CAMHB, plate type 384well, NBS, CORNING #3640
Description: Antibacterial activity against Pseudomonas aeruginosa ATCC 27853 (CO-ADD:GN_042); MIC in CAMBH media using NBS plates, by OD(600)

[6] = tested on: Cryptococcus neoformans
Description: Antifungal activity against Cryptococcus neoformans H99 ATCC 208821 (CO-ADD:FG_002); MIC in YNB media using NBS plates, by Resazurin OD(600-570)

[7] = tested on: Klebsiella pneumoniae; experiment: microbe, parasite or virus in culture; details: ATCC 700603, 18 h, ASSAY_TEST Inhibition of Bacterial Growth, detection method Absorption (OD600), MEDIA CAMHB, plate type 384well, NBS, CORNING #3640
Description: Antibacterial activity against Klebsiella pneumoniae MDR ATCC 70063 (CO-ADD:GN_003); MIC in CAMBH media using NBS plates, by OD(600)

[8] = tested on: Acinetobacter baumannii; experiment: microbe, parasite or virus in culture; details: ATCC 19606, 18 h, ASSAY_TEST Inhibition of Bacterial Growth, detection method Absorption (OD600), MEDIA CAMHB, plate type 384well, NBS, CORNING #3640
Description: Antibacterial activity against Acinetobacter baumannii ATCC 19606 (CO-ADD:GN_034); MIC in CAMBH media using NBS plates, by OD600

[9] = Homo sapiens, ATCC CRL1573, HEK293

Structure (SMILES)	MIC [1] [µM]	MIC [2] [µM]	CC50 [3, 9] [µM]	MIC [4] [µM]	MIC [5] [µM]	MIC [6] [µM]	MIC [7] [µM]	MIC [8] [µM]	CC50 [3] [µM]
O=C1CN(/N=C/c2ccc([N+](=O)[O-])o2)C(=O)N1 [NITROFURANTOIN]	> 10	> 10	> 10	> 10	> 10	> 10	> 10	> 10	–
Oc1c(Cl)cc(Cl)c2cccnc12 [CHLOROXINE]	> 10	1.25 (≈ 0.268 µg/mL)	> 10	> 10	> 10	2.5 (≈ 0.535 µg/mL)	> 10	> 10	–
CN(C)c1ccc(O)c2c1C[C@H]1C[C@H]3[C@H](N(C)C)C(O)=C(C(N)=O)C(=O)[C@@]3(O)C(O)=C1C2=O [MINOCYCLINE HYDROCHLORIDE]	2.5	> 10	0.0983	0.312	0.312	> 10	> 10	> 10	–
Cc1onc(-c2ccccc2)c1C(=O)NC1C(=O)N2C1SC(C)(C)C2C(=O)O (stereo not drawn)	> 10	> 10	> 10	> 10	> 10	> 10	> 10	> 10	–
CCc1c2c(nc3ccc(OC(=O)N4CCC(N5CCCCC5)CC4)cc13)-c1cc3c(c(=O)n1C2)COC(=O)[C@]3(O)CC [IRINOTECAN HYDROCHLORIDE]	> 10	> 10	0.341	> 10	> 10	> 10	> 10	> 10	–
CC1COc2c(N3CCN(C)CC3)c(F)cc3c(=O)c(C(=O)O)cn1c23 (stereo not drawn) [OFLOXACIN]	≤ 0.0781	> 10	> 10	1.25 (≈ 0.452 µg/mL)	1.25 (≈ 0.452 µg/mL)	> 10	5 (≈ 1.81 µg/mL)	5 (≈ 1.81 µg/mL)	–
CN(C)[C@@H]1C(=O)C(C(N)=O)=C(O)[C@@]2(O)C(O)=C3C(=O)c4c(O)cccc4[C@@](C)(O)[C@H]3[C@H](O)[C@@H]12	5 (≈ 2.3 µg/mL)	> 10	> 10	1.25 (≈ 0.576 µg/mL)	10 (≈ 4.6 µg/mL)	> 10	> 10	> 10	–
CCN1CCN(c2cc3c(cc2F)c(=O)c(C(=O)O)cn3C2CC2)CC1 [ENROFLOXACIN]	≤ 0.0781	> 10	> 10	0.312 (≈ 0.112 µg/mL)	0.312 (≈ 0.112 µg/mL)	> 10	2.5 (≈ 0.899 µg/mL)	5 (≈ 1.8 µg/mL)	–
Clc1ccccc1C(c1ccccc1)(c1ccccc1)n1ccnc1 [CLOTRIMAZOLE]	> 10	0.156 (≈ 0.0539 µg/mL)	> 10	> 10	> 10	1.25 (≈ 0.431 µg/mL)	> 10	> 10	–
CCCCCCCCCOc1ccc2[nH]cc(CCN)c2c1	> 10	> 10	4.05	> 10	> 10	> 10	> 10	> 10	–
NC(=O)OCC(COC(N)=O)c1ccccc1	> 10	> 10	> 10	> 10	> 10	> 10	> 10	> 10	–
O=c1[nH]cc(F)c(=O)[nH]1 [FLUOROURACIL]	> 10	> 10	> 10	2.5 (≈ 0.325 µg/mL)	> 10	5 (≈ 0.65 µg/mL)	> 10	> 10	–
C[C@H]1O[C@H](O[C@H]2[C@H](O)[C@@H](O)[C@@H](O[C@H]3[C@H](O)[C@@H](O)C(O)O[C@@H]3CO)O[C@@H]2CO)[C@H](O)[C@@H](O)[C@@H]1N[C@H]1C=C(CO)[C@@H](O)[C@H](O)[C@H]1O (stereo partly drawn) [ACARBOSE]	> 10	> 10	> 10	> 10	> 10	> 10	> 10	> 10	–
Cc1onc(-c2c(Cl)cccc2Cl)c1C(=O)N[C@@H]1C(=O)N2[C@@H]1SC(C)(C)[C@@H]2C(=O)O	> 10	> 10	> 10	0.625 (≈ 0.294 µg/mL)	> 10	> 10	> 10	> 10	–
CON=C(C(=O)NC1C(=O)N2C(C(=O)O)=C(COC(C)=O)CSC12)c1csc(N)n1 (stereo not drawn)	0.312 (≈ 0.142 µg/mL)	> 10	> 10	> 10	> 10	> 10	> 10	> 10	–
CO[C@H]1/C=C/O[C@@]2(C)Oc3c(C)c(O)c4c(O)c(c(C=NN5CCN(C6CCCC6)CC5)c(O)c4c3C2=O)NC(=O)/C(C)=C\C=C\[C@H](C)[C@H](O)[C@@H](C)[C@@H](O)[C@@H](C)[C@H](OC(C)=O)[C@@H]1C	10 (≈ 8.77 µg/mL)	> 10	> 10	≤ 0.0781	10 (≈ 8.77 µg/mL)	> 10	> 10	> 10	–
CCOc1ccc2ccccc2c1C(=O)N[C@@H]1C(=O)N2[C@@H]1SC(C)(C)[C@@H]2C(=O)O [NAFCILLIN SODIUM]	> 10	> 10	> 10	1.25	> 10	> 10	> 10	> 10	–
CC[C@H]1OC(=O)[C@H](C)[C@@H](O[C@H]2C[C@@](C)(OC)[C@@H](O)[C@H](C)O2)[C@H](C)[C@@H](O[C@@H]2O[C@H](C)C[C@H](N(C)C)[C@H]2O)[C@](C)(O)C[C@@H](C)CN(C)[C@H](C)[C@@H](O)[C@]1(C)O [AZITHROMYCIN]	10 (≈ 7.49 µg/mL)	> 10	> 10	> 10	10 (≈ 7.49 µg/mL)	> 10	> 10	> 10	–
CC1(C)SC2C(NC(=O)Cc3ccccc3)C(=O)N2C1C(=O)O (stereo not drawn)	> 10	> 10	> 10	> 10	> 10	> 10	> 10	> 10	–
Cc1nnc(SCC2=C(C(=O)O)N3C(=O)C(NC(=O)Cn4cnnn4)C3SC2)s1 (stereo not drawn)	> 10	> 10	> 10	> 10	> 10	> 10	> 10	> 10	–
CCOC(=O)C1=C(C)NC(C)=C(C(=O)OCC)C1c1ccccc1/C=C/C(=O)OC(C)(C)C [LACIDIPINE]	> 10	> 10	> 10	> 10	> 10	> 10	> 10	> 10	–
COc1c(N2CCNC(C)C2)c(F)cc2c(=O)c(C(=O)O)cn(C3CC3)c12 (stereo not drawn) [GATIFLOXACIN]	≤ 0.0781	> 10	> 10	0.312 (≈ 0.117 µg/mL)	0.625 (≈ 0.235 µg/mL)	> 10	2.5 (≈ 0.939 µg/mL)	1.25 (≈ 0.469 µg/mL)	–
COc1cc2nc(N3CCN(C(=O)c4ccco4)CC3)nc(N)c2cc1OC	> 10	> 10	> 10	> 10	> 10	> 10	> 10	> 10	–
N[C@@H](C(=O)N[C@@H]1C(=O)N2C(C(=O)O)=C(Cl)CS[C@H]12)c1ccccc1 [CEFACLOR ANHYDROUS]	> 10	> 10	> 10	> 10	> 10	> 10	> 10	> 10	–
COc1cc(Cc2cnc(N)nc2N)cc(OC)c1OC [TRIMETHOPRIM]	1.25 (≈ 0.363 µg/mL)	> 10	> 10	5 (≈ 1.45 µg/mL)	> 10	> 10	10 (≈ 2.9 µg/mL)	> 10	–
CCCCCCNC(=O)n1cc(F)c(=O)[nH]c1=O [CARMOFUR]	> 10	> 10	> 10	2.5 (≈ 0.643 µg/mL)	> 10	5 (≈ 1.29 µg/mL)	> 10	> 10	–
CC(C)/N=c1\cc2n(-c3ccc(Cl)cc3)c3ccccc3nc-2cc1Nc1ccc(Cl)cc1 [CLOFAZIMINE]	> 10	> 10	–	> 10	> 10	> 10	> 10	> 10	0.31
CCCCc1oc2ccccc2c1C(=O)c1cc(I)c(OCCN(CC)CC)c(I)c1 [AMIODARONE HYDROCHLORIDE]	–	> 10	> 10	> 10	> 10	10	> 10	> 10	–
